These results are taken from US7919488B2, “Therapeutic compounds” (Pfizer Inc., priority 2006, dated 2011).

Common to all, as to type: biochemical
Assay [1] concerns the target T1, recombinant CYP3A4-b5 enzyme (Baculosomes®) (Homo sapiens, UniProt P08684).
T1 construct: purchased Invitrogen (Carlsbad, Calif.)
The assay can be described thus: Kiapp against recombinant CYP3A4 enzyme (Baculosomes), BFC substrate. As to conditions: recombinant CYP3A4-b5 (Invitrogen), 5 uM BFC, 200 uM NADPH, pre-incubation at least 30 minutes, pH 7.0, room temperature. On the procedure: 1. Determination of Compound Kiapp
A determination of the Kiapp of the compounds of the invention against recombinant CYP3A4 enzyme was performed as follows. The assay was performed in a 100 mM sodium phosphate buffer pH 7.0, 5 mM TCEP and containing 2% dimethylformamide (final concentration) upon addition of substrate and inhibitor. A typical reaction for the determination of Kiapp values was carried at room temperature in a solid black Costar u-bottom 96-well polypropylene plate. […] When pre-incubation was completed (˜30 min), the reaction was initiated by adding NADPH (200 uM, final concentration), and 7-benzyloxy-4-(trifluoromethyl)-coumarin (BFC) (5 uM, final concentration). The oxidation of the coumarin substrate was recorded by a 96-well plate reader POLARstar (BMG LABTECH, Offenburg, Germany).
The initial reaction velocities were measured during the first 5 min of the reaction when the release of the fluorescent product is linear with time, in the absence and in the presence of various concentrations of inhibitors.
The fluorescent substrate BFC was purchased from Sigma (St Louis, Mo.). Two commercial sources of recombinant enzymes were used in this study: recombinant CYP3A4-b5 enzyme (Baculosomes®) was purchased from Invitrogen (Carlsbad, Calif.) and the recombinant CYP3A4+b5 enzyme (Supersomes®) was purchased from BD Biosciences (Woburn, Mass.).

Assay [2] addresses T2, CYP3A4 (Homo sapiens, UniProt P08684).
T2 construct: 0.1 mg/mL human liver microsomes; from tissue; host or cells: human liver microsomes
The assay can be described thus: IC50 against CYP3A4 by inhibition of testosterone metabolism in human liver microsomes. Particulars: 0.1 mg/mL human liver microsomes, 25 μM testosterone, 1 mM NADPH, 6-β-OH-testosterone production, eight minutes; read-out: IC50, μM (HLM, testosterone). On the procedure:
2. Determination of IC50 Against CYP3A4 by Measurement of Inhibition of Testosterone Metabolism
This assay was performed using a standard 96 well plate design. […] Quantitation of metabolite peak area ratio against an internal standard is determined by LC-MS/MS analysis. The production of 6-β-OH-testosterone from testosterone metabolism is determined after incubation for eight minutes by comparison to a standard curve generated for the metabolite
(§1) Samples were analyzed in the MRM mode using a Sciex API 3000 mass spectrometer (Applied Biosystems, Foster City, Calif.) with a Paradigm MS4 binary pump (Michrom BioResources Inc., Auburn, Calif.) and a LEAP CTC PAL autosampler (LEAP Technologies, Carrboro, N.C.). A Phenomenex Synergi, 4μ, Polar-RP, 10×2.0 mm column (Phenomenex, Torrance, Calif.) was used for separation with a mobile phase composition of: 0.1% formic acid in water (A) and: 0.1% formic acid in methanol (B). The following gradient was used: […]
(§2) The sample injection volume was 10 μL and flow was split post-column with 0.4 mL/min going to the mass spectrometer. Analysis was performed using the following API 3000 mass spectrometer settings: […]
On the technique in general: Liver microsomes are vesicles of endoplasmic reticulum, rich in cytochrome P450 enzymes.

The target of assay [3] is T2, CYP3A4. The assay can be described thus: IC50 against CYP3A4 by inhibition of midazolam metabolism in human liver microsomes. As to conditions: 0.1 mg/mL human liver microsomes, 2 μM midazolam, 1 mM NADPH, 1-hydroxymidazolam production, eight minutes; read-out: IC50, μM (HLM, midazolam). On the procedure:
3. Determination of IC50 Against CYP3A4 by Measurement of Inhibition of Midazolam Metabolism
This assay was performed using a standard 96 well plate design. […] The incubation substrate mix contains 2 μM midazolam, 0.1 mg/mL human liver microsomes, 1 mM NADPH, and potassium phosphate buffer (100 mM, pH 7.4). Quantitation of metabolite peak area ratio against internal standard is determined by LC-MS/MS analysis. The production of 1-hydroxymidazolam from midazolam metabolism is determined after incubation for eight minutes by comparison to a standard curve generated for the metabolite.
as §1, §2

T2 sequence (P08684 whole entry): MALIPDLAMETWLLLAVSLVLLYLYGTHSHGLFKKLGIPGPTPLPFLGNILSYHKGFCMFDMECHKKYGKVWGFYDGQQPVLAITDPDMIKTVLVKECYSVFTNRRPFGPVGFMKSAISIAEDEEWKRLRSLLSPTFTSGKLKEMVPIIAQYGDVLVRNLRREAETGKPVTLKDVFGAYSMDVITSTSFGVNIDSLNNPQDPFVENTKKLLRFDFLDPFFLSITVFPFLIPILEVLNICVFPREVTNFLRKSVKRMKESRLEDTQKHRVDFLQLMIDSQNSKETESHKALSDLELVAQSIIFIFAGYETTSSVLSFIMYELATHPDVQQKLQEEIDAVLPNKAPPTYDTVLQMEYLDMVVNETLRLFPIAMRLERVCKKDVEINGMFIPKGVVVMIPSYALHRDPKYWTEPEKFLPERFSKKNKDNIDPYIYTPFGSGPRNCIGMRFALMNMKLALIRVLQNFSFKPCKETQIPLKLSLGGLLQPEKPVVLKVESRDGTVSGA
T1 sequence (P08684 whole entry): as above

Consider `COC(=O)Cn1nc(-c2ccncc2)cc1Cc1ccc(F)cc1` [Example 2, methyl [5-(4-fluorobenzyl)-3-pyridin-4-yl-1H-pyrazol-1-yl]acetate], for which the Ki in assay [1] was 0.13 µM. The IC50 in assay [2] amounted to 0.956 µM.

Take `O=C(Cn1nc(-c2ccncc2)cc1Cc1ccc(F)cc1)N1CCC(N2CCCC2=O)CC1` [Example 5, 1(1-{[5-(4-fluorobenzyl)-3-pyridin-4-yl-1H-pyrazol-1-yl]acetyl}piperidin-4-yl)pyrrolidin-2-one]: the Ki in assay [1] was found to be 0.085 µM. Further, the IC50 was determined as 0.033 µM in assay [2] and 0.01 µM in assay [3].

As for `NC1CCN(C(=O)Cn2nc(-c3ccncc3)cc2Cc2ccc(F)cc2)CC1` [Example 8, 1-{[5-(4-fluorobenzyl)-3-pyridin-4-yl-1H-pyrazol-1-yl]acetyl}piperidin-4-amine], in assay [1], the Ki was determined as 0.547 µM. Moreover, the figures for the IC50 in assay [2] and in assay [3] were 0.273 µM and 0.114 µM, respectively.

Turning to `CC(C)NC1CCN(C(=O)Cn2nc(-c3ccncc3)cc2Cc2ccc(F)cc2)CC1` [Example 9, 1-{[5-(4-fluorobenzyl)-3-pyridin-4-yl-1H-pyrazol-1-yl]acetyl}-N-isopropylpiperidin-4-amine], the Ki in assay [1] was found to be 0.202 µM. For the same compound, in assay [2], the IC50 is 0.056 µM.

As for `CCC(=O)N(C)C1CCN(C(=O)Cn2nc(-c3ccncc3)cc2Cc2ccc(F)cc2)CC1` [Example 10, N-(1-{[5-(4-fluorobenzyl)-3-pyridin-4-yl-1H-pyrazol-1-yl]acetyl}piperidin-4-yl)-N-methylpropanamide], the Ki in assay [1] was 0.0297 µM. The results for the IC50 in assay [2] and in assay [3] were 0.033 µM and 0.013 µM, respectively.

Turning to `CC(C)C(=O)N(C)C1CCN(C(=O)Cn2nc(-c3ccncc3)cc2Cc2ccc(F)cc2)CC1` [Example 11, N-(1-{[5-(4-fluorobenzyl)-3-pyridin-4-yl-1H-pyrazol-1-yl]acetyl}piperidin-4-yl)-N,2-dimethylpropanamide], the Ki in assay [1] came out at 0.00841 µM. Besides, the IC50 was 0.012 µM in assay [2] and less than 0.003 µM in assay [3].

For `CN(C(=O)C1CCC1)C1CCN(C(=O)Cn2nc(-c3ccncc3)cc2Cc2ccc(F)cc2)CC1` [Example 12, N-(1-{[5-(4-fluorobenzyl)-3-pyridin-4-yl-1H-pyrazol-1-yl]acetyl}piperidin-4-yl)-N-methylcyclobutanecarboxamide], the Ki in assay [1] came out at 0.00701 µM. Moreover, the figures for the IC50 in assay [2] and in assay [3] were 0.009 µM and less than 0.003 µM, respectively.

Turning to `CN(C(=O)C1CC1)C1CCN(C(=O)Cn2nc(-c3ccncc3)cc2Cc2ccc(F)cc2)CC1` [Example 13, N-(1-{[5-(4-fluorobenzyl)-3-pyridin-4-yl-1H-pyrazol-1-yl]acetyl}piperidin-4-yl)-N-methylcyclopropanecarboxamide], the Ki in assay [1] came out at 0.0111 µM. The results for the half-inhibitory concentration (IC50) in assay [2] and in assay [3] were 0.009 µM and less than 0.00346 µM, respectively.

On to `CN(C1CCN(C(=O)Cn2nc(-c3ccncc3)cc2Cc2ccc(F)cc2)CC1)S(C)(=O)=O` [Example 14, N-(1-{[5-(4-fluorobenzyl)-3-pyridin-4-yl-1H-pyrazol-1-yl]acetyl}piperidin-4-yl)-N-methylmethanesulfonamide], for which, in assay [1], the Ki is 0.0236 µM. Also, the IC50 in assay [2] amounted to 0.015 µM; in assay [3], 0.013 µM.

As for `COC(=O)N(C)C1CCN(C(=O)Cn2nc(-c3ccncc3)cc2Cc2ccc(F)cc2)CC1` [Example 15, Methyl (1-{[5-(4-fluorobenzyl)-3-pyridin-4-yl-1H-pyrazol-1-yl]acetyl}piperidin-4-yl)methylcarbamate], the Ki in assay [1] was found to be 0.0222 µM. The IC50 stood at 0.013 µM in assay [2] and 0.009 µM in assay [3].

On to `O=C(NC1CCN(C(=O)Cn2nc(-c3ccncc3)cc2Cc2ccc(F)cc2)CC1)C1CCC1` [Example 18, N-(1-{2-[5-(4-fluorobenzyl)-3-pyridin-4-yl-1H-pyrazol-1-yl]acetyl}piperidin-4-yl)cyclobutanecarboxamide], for which, in assay [1], the Ki stood at 0.0706 µM. The IC50 in assay [2] was found to be 0.018 µM.

On to `Fc1ccc(Cc2cc(-c3ccncc3)nn2C2CN(C(c3ccccc3)c3ccccc3)C2)cc1` [Example 20, 4-[1-[1-(diphenylmethyl)azetidin-3-yl]-5-(4-fluorobenzyl)-1H-pyrazol-3-yl]pyridine], for which, in assay [1], the Ki was determined as 0.0365 µM. In addition, the results for the IC50 in assay [2] and in assay [3] were 0.251 µM and 0.228 µM, respectively.

On to `OCCn1nc(-c2ccncc2)cc1Cc1ccc(F)cc1` [Example 29, 2-[5-(4-fluorobenzyl)-3-pyridin-4-yl-1H-pyrazol-1-yl]ethanol], for which the Ki in assay [1] amounted to 0.159 µM. Besides, the IC50 in assay [2] worked out at 0.054 µM.

Turning to `O=C(Cn1nc(-c2ccncc2)cc1Cc1ccc(F)cc1)NCCc1cnccn1` [Example 78, 2-[5-(4-fluorobenzyl)-3-pyridin-4-yl-1H-pyrazol-1-yl]-N-(2-pyrazin-2-ylethyl)acetamide], the Ki in assay [1] came out at 0.0834 µM. The half-maximal inhibitory concentration (IC50) in assay [2] was 0.04 µM.

Turning to `C[C@H](CO)NC(=O)Cn1nc(-c2ccncc2)cc1Cc1ccc(F)cc1` [Example 94, 2-[5-(4-fluorobenzyl)-3-pyridin-4-yl-1H-pyrazol-1-yl]-N-[(1R)-2-hydroxy-1-methylethyl]acetamide], the Ki in assay [1] is 0.112 µM. Moreover, the IC50 in assay [2] came out at 0.022 µM.

For the compound `CC(C)C(=O)NC1CCN(C(=O)Cn2nc(-c3ccncc3)cc2Cc2ccc(F)cc2)CC1` [Example 104, N-(1-{[5-(4-fluorobenzyl)-3-pyridin-4-yl-1H-pyrazol-1-yl]acetyl}piperidin-4-yl)-2-methylpropanamide], in assay [1], the Ki was 0.106 µM. In addition, the IC50 in assay [2] turned out to be 0.046 µM.

`COC(=O)NC1CCN(C(=O)Cn2nc(-c3ccncc3)cc2Cc2ccc(F)cc2)CC1` [Example 105, methyl (1-{[5-(4-fluorobenzyl)-3-pyridin-4-yl-1H-pyrazol-1-yl]acetyl}piperidin-4-yl)carbamate]: the Ki in assay [1] is 0.055 µM. The half-inhibitory concentration (IC50) in assay [2] amounted to 0.036 µM.

`CCNC(=O)NC1CCN(C(=O)Cn2nc(-c3ccncc3)cc2Cc2ccc(F)cc2)CC1` [Example 106, 1-ethyl-3-(1-{[5-(4-fluorobenzyl)-3-pyridin-4-yl-1H-pyrazol-1-yl]acetyl}piperidin-4-yl)urea]: the Ki in assay [1] amounted to 0.0782 µM. Further, the IC50 in assay [2] was 0.023 µM.

`CNC(=O)NC1CCN(C(=O)Cn2nc(-c3ccncc3)cc2Cc2ccc(F)cc2)CC1` [Example 107, 1-(1-{[5-(4-fluorobenzyl)-3-pyridin-4-yl-1H-pyrazol-1-yl]acetyl}piperidin-4-yl)-3-methylurea]: the Ki in assay [1] is 0.165 µM. Also, the IC50 in assay [2] was determined as 0.029 µM.

With `O=C(Cn1nc(-c2c[nH]cn2)cc1Cc1ccc(F)cc1)N1CCN(c2ncccn2)CC1` [Example 108, 2-(4-{[5-(4-fluorobenzyl)-3-(1H-imidazol-4-yl)-1H-pyrazol-1-yl]acetyl}piperazin-1-yl)pyrimidine], the Ki in assay [1] came out at 0.0881 µM. For the same compound, the IC50 in assay [2] came out at 0.241 µM.

For `CC(=O)N(C)C1CCN(C(=O)Cn2nc(-c3ccncc3)cc2Cc2ccc(F)cc2)CC1` [Example 109, N-(1-{[5-(4-fluorobenzyl)-3-pyridin-4-yl-1H-pyrazol-1-yl]acetyl}piperidin-4-yl)-N-methylacetamide], in assay [1], the Ki came out at 0.0643 µM. Also, the IC50 in assay [2] is 0.036 µM.

Take `CCS(=O)(=O)N(C)C1CCN(C(=O)Cn2nc(-c3ccncc3)cc2Cc2ccc(F)cc2)CC1` [Example 110, N-(1-{[5-(4-fluorobenzyl)-3-pyridin-4-yl-1H-pyrazol-1-yl]acetyl}piperidin-4-yl)-N-methylethane-sulfonamide]: in assay [1], the Ki was determined as 0.0158 µM. Besides, in assay [2], the IC50 is 0.016 µM.

What is called IC50 is the point on the concentration scale where inhibition reaches its midpoint.
